Experimental data reported in US5668295A, “Protein involved in nicotine synthesis, DNA encoding, and use of sense and antisense DNAs corresponding thereto to affect nicotine content in transgenic tobacco cells and plants” (Philip Morris Incorporated, priority 1995, dated 1997).

Key:
[1] = system: putrescine N-methyltransferase ("PMT") / highly purified tobacco protein; assay: Substrate specificity test: analogs substituted for putrescine in the standard PMT assay; assay type: biochemical, Nicotiana tabacum L. var. Burley 21; conditions: for radioactive product formed when substituted for putrescine: standard PMT assay, 30° C., 30 minutes
Method: (§1) The reaction was started by addition of the enzyme sample, and it was carried out at 30° C. for 30 minutes. The reaction was stopped by addition of 0.5 ml of 10% (w/v) NaOH saturated with NaCl.
(§2) The radioactive product, N-[^14 C-methyl]putrescine, was separated from the substrate by solvent extraction into chloroform. After vortexing the stopped reaction mixture with 1 ml of chloroform for 90 seconds, the organic and aqueous phases were separated by centrifugation at 1600×gav for 5 minutes. A 0.5 ml aliquot of the organic phase was then assayed. The 0.5 ml aliquot of the organic phase was added to 9.5 ml of liquid scintillation cocktail (Beckman Instruments, Columbia, Md.) and radioactivity was measured by standard procedures with a liquid scintillation counter.
(§3) One unit of apparent PMT activity is defined as one nanomole of product formed per 30 min., at 30° C.
(§4) Negative controls were included with all PMT assays. Negative controls consisted of reaction mixtures minus enzyme, or reaction stopped with NaOH at time zero.
Substrate specificity tests were carried out with the highly purified tobacco protein of the present invention. 1,3-Diaminopropane and 1,5-diaminopentane (chemical analogs of putrescine) phosphatidylethanolamine (a methyl group acceptor), and N-methylputrescine(the normal product of PMT), were compared with putrescine (1,4-diaminobutane) for ability to serve as an apparent substrate for PMT.

[2] = system: putrescine N-methyltransferase ("PMT") / subject tobacco protein; assay: Apparent Km determination in the apparent PMT activity assay; assay type: biochemical, Nicotiana tabacum L. var. Burley 21; conditions: partially purified tobacco protein; S-adenosylmethionine in excess
Method: as §1, §2, §3, §4

Row | Molecule | radioactive product formed when substituted for putrescine [1] | other results
1 | NCCCN [1,3-diaminopropane, 1,3-Diaminopropane] | no detectable amount of radioactive product was formed | 
2 | CNCCCCN [N-methylputrescine] |  | radioactive product formation relative to that observed with putrescine ([1]; substituted for putrescine in the PMT assay): less than 6%
3 | phosphatidylethanolamine | no detectable amount of radioactive product was formed | 
4 | NCCCCN [putrescine, 1,4-diaminobutane] |  | Km [2]: ~400 µM
5 | NCCCCCN [1,5-diaminopentane] | no detectable amount of radioactive product was formed | 
